For 28 compounds, IC50 results are on record in patent publication US11446287B2, “Compounds and methods for EP300 or CBP modulation and indications therefor” (Opna Immuno-Oncology SA, priority 2019, dated 2022).

The structures appear in SMILES notation.

This experiment deals with T1, Recombinant human EP300 containing the bromodomain (EP300-BD (1040-1161)) (Homo sapiens, UniProt Q09472).
T1 construct: Recombinant human EP300 bromodomain (EP300-BD (1040-1161)); made in house; host or cells: E. coli BL21-CodonPlus (DE3), modified pET vector
T1 sequence (Q09472 1040-1161): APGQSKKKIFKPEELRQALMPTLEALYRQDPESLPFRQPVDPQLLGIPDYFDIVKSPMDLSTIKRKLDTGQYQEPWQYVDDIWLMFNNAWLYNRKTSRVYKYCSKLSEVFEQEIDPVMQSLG
Briefly: EP300 Alphascreen binding assay. A digest of the protocol:
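Displacement of a biotinylated acetyl-K56 histone H3 peptide from the N-His bromodomain construct (1040-1161) measured by AlphaScreen proximity, beads at 7.5 μg/ml final, read 60 min after addition. Protein, peptide and compound first incubated 1 h at room temperature, pH 7.5 HEPES buffer; IC50 by four-parameter logistic fit.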

As to `Cc1noc(C)c1-c1cnc2c(c1)c(-c1ccc(C(=O)O)cc1OC1CCC1)cn2-c1ccccc1` [P-0276, 3-cyclobutoxy-4-(5-(3,5-dimethylisoxazol-4-yl)-1-phenyl-1H-pyrrolo[2,3-b]pyridin-3-yl)benzoic acid], the half-maximal inhibitory concentration (IC50) fell in the range of 0.1 to 1000 nM. The figure for `Cc1noc(C)c1-c1cnc2c(c1)c(-c1ccc(C(=O)O)cc1OCC(F)F)cn2-c1ccccc1` [P-0277, 3-(2,2-difluoroethoxy)-4-(5-(3,5-dimethylisoxazol-4-yl)-1-phenyl-1H-pyrrolo[2,3-b]pyridin-3-yl)benzoic acid] is 0.1 to 1000 nM.

For the compound `Cc1noc(C)c1-c1cnc2c(c1)c(-c1ccc(C(=O)O)cc1OCC(F)(F)F)cn2-c1ccccc1` [P-0278, 4-(5-(3,5-dimethylisoxazol-4-yl)-1-phenyl-1H-pyrrolo[2,3-b]pyridin-3-yl)-3-(2,2,2-trifluoroethoxy)benzoic acid], the IC50 is 0.1 to 1000 nM. The figure for `Cc1noc(C)c1-c1cnc2c(c1)c(-c1ccc(C(=O)O)cc1OC(F)(F)F)cn2-c1ccc(F)cc1` [P-0279, 4-(5-(3,5-dimethylisoxazol-4-yl)-1-(4-fluorophenyl)-1H-pyrrolo[2,3-b]pyridin-3-yl)-3-(trifluoromethoxy)benzoic acid] is 0.1 to 1000 nM; for `Cc1noc(C)c1-c1cnc2c(c1)c(-c1cnn(CC(=O)O)c1)cn2C(C1CC1)C1CC1` [P-0280, 2-(4-(1-(dicyclopropylmethyl)-5-(3,5-dimethylisoxazol-4-yl)-1H-pyrrolo[2,3-b]pyridin-3-yl)-1H-pyrazol-1-yl)acetic acid] it is 0.1 to 1000 nM. Under `Cc1noc(C)c1-c1cnc2c(c1)c(-c1ccc(C(=O)O)cc1OC(F)(F)F)cn2-c1cnc(N2CCC2)nc1` [P-0281, 4-(1-(2-(azetidin-1-yl)pyrimidin-5-yl)-5-(3,5-dimethylisoxazol-4-yl)-1H-pyrrolo[2,3-b]pyridin-3-yl)-3-(trifluoromethoxy)benzoic acid] stands 0.1 to 1000 nM; under `Cc1noc(C)c1-c1cnc2c(c1)c(-c1ccc(C(=O)O)cc1OC(F)(F)F)cn2-c1ccc(S(C)(=O)=O)cc1` [P-0282, 4-(5-(3,5-dimethylisoxazol-4-yl)-1-(4-(methylsulfonyl)phenyl)-1H-pyrrolo[2,3-b]pyridin-3-yl)-3-(trifluoromethoxy)benzoic acid], 0.1 to 1000 nM.

As to `Cc1noc(C)c1-c1cnc2c(c1)c(-c1c(Cl)cc(C(=O)O)cc1OC(C)C)cn2C(C1CC1)C1CC1` [P-0283, 3-chloro-4-(1-(dicyclopropylmethyl)-5-(3,5-dimethylisoxazol-4-yl)-1H-pyrrolo[2,3-b]pyridin-3-yl)-5-isopropoxybenzoic acid], the IC50 was in the range of 0.1 to 1000 nM. On to `Cc1noc(C)c1-c1cnc2c(c1)c(-c1cc(C(=O)O)ccc1OC(F)(F)F)cn2C(C1CC1)C1CC1` [P-0284, 3-(1-(dicyclopropylmethyl)-5-(3,5-dimethylisoxazol-4-yl)-1H-pyrrolo[2,3-b]pyridin-3-yl)-4-(trifluoromethoxy)benzoic acid], for which the half-inhibitory concentration (IC50) was 0.1 to 1000 nM. Under `Cc1noc(C)c1-c1cnc2c(c1)c(-c1ccc(C(=O)O)cc1OC(F)(F)F)cn2[C@H]1CCOC1` [P-0285, (S)-4-(5-(3,5-dimethylisoxazol-4-yl)-1-(tetrahydrofuran-3-yl)-1H-pyrrolo[2,3-b]pyridin-3-yl)-3-(trifluoromethoxy)benzoic acid] stands 0.1 to 1000 nM; under `Cc1noc(C)c1-c1cnc2c(c1)c(-c1ccc(C(=O)O)cc1OC(F)(F)F)cn2[C@@H]1CCOC1` [P-0286, (R)-4-(5-(3,5-dimethylisoxazol-4-yl)-1-(tetrahydrofuran-3-yl)-1H-pyrrolo[2,3-b]pyridin-3-yl)-3-(trifluoromethoxy)benzoic acid], 0.1 to 1000 nM; under `CCn1cc(-n2cc(-c3ccc(C(=O)O)cc3OC(F)(F)F)c3cc(-c4c(C)noc4C)cnc32)c(C)n1` [P-0287, 4-(5-(3,5-dimethylisoxazol-4-yl)-1-(1-ethyl-3-methyl-1H-pyrazol-4-yl)-1H-pyrrolo[2,3-b]pyridin-3-yl)-3-(trifluoromethoxy)benzoic acid], 0.1 to 1000 nM. `Cc1nn(C(F)F)cc1-n1cc(-c2ccc(C(=O)O)cc2OC(F)(F)F)c2cc(-c3c(C)noc3C)cnc21` [P-0288, 4-(1-(1-(difluoromethyl)-3-methyl-1H-pyrazol-4-yl)-5-(3,5-dimethylisoxazol-4-yl)-1H-pyrrolo[2,3-b]pyridin-3-yl)-3-(trifluoromethoxy)benzoic acid]: the concentration for half-maximal inhibition (IC50) is 0.1 to 1000 nM.

For `Cc1noc(C)c1-c1cnc2c(c1)c(-c1ccc(C(=O)O)cc1OC(F)(F)F)cn2-c1cnn(C(F)F)c1C` [P-0289, 4-(1-(1-(difluoromethyl)-5-methyl-1H-pyrazol-4-yl)-5-(3,5-dimethylisoxazol-4-yl)-1H-pyrrolo[2,3-b]pyridin-3-yl)-3-(trifluoromethoxy)benzoic acid], the IC50 lay in the range of 0.1 to 1000 nM. The figure for `Cc1noc(C)c1-c1cnc2c(c1)c(-c1ccc(C(=O)O)cc1OC(F)(F)F)cn2C1CCNCC1` [P-0290, 4-(5-(3,5-dimethylisoxazol-4-yl)-1-(piperidin-4-yl)-1H-pyrrolo[2,3-b]pyridin-3-yl)-3-(trifluoromethoxy)benzoic acid] is 0.1 to 1000 nM. With `CC(=O)N1CCC(n2cc(-c3ccc(C(=O)O)cc3OC(F)(F)F)c3cc(-c4c(C)noc4C)cnc32)CC1` [P-0291, 4-(1-(1-acetylpiperidin-4-yl)-5-(3,5-dimethylisoxazol-4-yl)-1H-pyrrolo[2,3-b]pyridin-3-yl)-3-(trifluoromethoxy)benzoic acid], the IC50 was in the range of 0.1 to 1000 nM. The figure for `Cc1noc(C)c1-c1cnc2c(c1)c(-c1ccc(C(=O)O)cc1OC(F)(F)F)cn2C1CCN(S(C)(=O)=O)CC1` [P-0292, 4-(5-(3,5-dimethylisoxazol-4-yl)-1-(1-(methylsulfonyl)piperidin-4-yl)-1H-pyrrolo[2,3-b]pyridin-3-yl)-3-(trifluoromethoxy)benzoic acid] is 0.1 to 1000 nM; for `Cc1noc(C)c1-c1cnc2c(c1)c(-c1ccc(C(=O)O)cc1OC(F)(F)F)cn2-c1ccncc1F` [P-0293, 4-(5-(3,5-dimethylisoxazol-4-yl)-1-(3-fluoropyridin-4-yl)-1H-pyrrolo[2,3-b]pyridin-3-yl)-3-(trifluoromethoxy)benzoic acid] it is 0.1 to 1000 nM; for `Cc1noc(C)c1-c1cnc2c(c1)c(-c1ccc(C(=O)O)cc1OC(F)(F)F)cn2-c1cnn(CC(C)(C)O)c1` [P-0294, 4-(5-(3,5-dimethylisoxazol-4-yl)-1-(1-(2-hydroxy-2-methylpropyl)-1H-pyrazol-4-yl)-1H-pyrrolo[2,3-b]pyridin-3-yl)-3-(trifluoromethoxy)benzoic acid] it is 0.1 to 1000 nM. The figure for `CCOc1cc(C(=O)O)ncc1-c1cn(-c2ccc(F)cc2F)c2ncc(-c3c(C)noc3C)cc12` [P-0295, 5-(1-(2,4-difluorophenyl)-5-(3,5-dimethylisoxazol-4-yl)-1H-pyrrolo[2,3-b]pyridin-3-yl)-4-ethoxypicolinic acid] is 0.1 to 1000 nM. Consider `CCOc1c(F)c(C(=O)O)c(F)c(OCC)c1-c1cn(-c2ccc(F)cc2F)c2ncc(-c3c(C)noc3C)cc12` [P-0296, 4-(1-(2,4-difluorophenyl)-5-(3,5-dimethylisoxazol-4-yl)-1H-pyrrolo[2,3-b]pyridin-3-yl)-3,5-diethoxy-2,6-difluorobenzoic acid], for which the IC50 lay in the range of 0.1 to 1000 nM.

For the compound `CCOc1cc(C(=O)O)c(F)c(OCC)c1-c1cn(-c2ccc(F)cc2F)c2ncc(-c3c(C)noc3C)cc12` [P-0297, 4-(1-(2,4-difluorophenyl)-5-(3,5-dimethylisoxazol-4-yl)-1H-pyrrolo[2,3-b]pyridin-3-yl)-3,5-diethoxy-2-fluorobenzoic acid], the IC50 is 0.1 to 1000 nM. The figure for `Cc1noc(C)c1-c1cnc2c(-c3ccccc3)cn(-c3c(OCC(F)(F)F)cc(C(=O)O)cc3OCC(F)(F)F)c2c1` [P-0298, 4-(6-(3,5-dimethylisoxazol-4-yl)-3-phenyl-1H-pyrrolo[3,2-b]pyridin-1-yl)-3,5-bis(2,2,2-trifluoroethoxy)benzoic acid] is 0.1 to 1000 nM; for `Cc1noc(C)c1-c1cnc2c(c1)c(-c1ccc(C(=O)O)cc1OC(C)C)cn2-c1cnn(CC(C)(C)O)c1` [P-0299, 4-(5-(3,5-dimethylisoxazol-4-yl)-1-(1-(2-hydroxy-2-methylpropyl)-1H-pyrazol-4-yl)-1H-pyrrolo[2,3-b]pyridin-3-yl)-3-isopropoxybenzoic acid] it is 0.1 to 1000 nM; for `Cc1noc(C)c1-c1cnc2c(c1)c(-c1ccc(C(=O)O)cc1OC(C)C)cn2-c1cnc(N2CCC2)nc1` [P-0300, 4-(1-(2-(azetidin-1-yl)pyrimidin-5-yl)-5-(3,5-dimethylisoxazol-4-yl)-1H-pyrrolo[2,3-b]pyridin-3-yl)-3-isopropoxybenzoic acid] it is 0.1 to 1000 nM.

Regarding `Cc1noc(C)c1-c1cnc2c(c1)c(-c1ccc(C(=O)O)cc1OC(C)C)cn2[C@H]1CCOC1` [P-0301, (S)-4-(5-(3,5-dimethylisoxazol-4-yl)-1-(tetrahydrofuran-3-yl)-1H-pyrrolo[2,3-b]pyridin-3-yl)-3-isopropoxybenzoic acid], the IC50 lay in the range of 0.1 to 1000 nM. For the compound `Cc1noc(C)c1-c1cnc2c(c1)c(-c1ccc(S(C)(=O)=O)cc1OC(C)C)cn2-c1ccccc1` [P-0302, 4-(3-(2-isopropoxy-4-(methylsulfonyl)phenyl)-1-phenyl-1H-pyrrolo[2,3-b]pyridin-5-yl)-3,5-dimethylisoxazole], the 50% inhibitory concentration (IC50) was 0.1 to 1000 nM.

Consider `CCCn1nc(C(=O)O)c(N)c1-c1cn(-c2ccc(F)cc2F)c2ncc(-c3c(C)noc3C)cc12` [P-0303, 4-amino-5-(1-(2,4-difluorophenyl)-5-(3,5-dimethylisoxazol-4-yl)-1H-pyrrolo[2,3-b]pyridin-3-yl)-1-propyl-1H-pyrazole-3-carboxylic acid], for which the IC50 was 0.1 to 1000 nM.
